Earlier results, collected in patent US5994374A, “Substituted 1-indolylpropyl-4-benzyl-tetrahydropyridine derivatives” (Merck Sharp & Dohme Ltd., priority 1995, dated 1999).

Tested on: human 5-HT1Dα and 5-HT1Dβ receptor subtypes
Settings: cf. WO-A-91/17174, Table 1

discrimination between the human 5-HT1Dα and 5-HT1Dβ receptor subtypes: barely discriminates
SMILES: CNS(=O)(=O)Cc1ccc2[nH]cc(CCN(C)C)c2c1 [sumatriptan]
